Measurements published in ChEMBL document CHEMBL1201862, “PubChem BioAssay data set” (2004).
The source made the active and inactive calls.

Assays:
[1] = biological target: T1, Corticotropin-releasing factor receptor 2/Corticotropin-releasing factor-binding protein (Homo sapiens, UniProt P24387+Q13324); assay: activators of CRF receptor 2 with binding protein – uHTS hits, confirmation (AID 602473); assay type: functional; conditions: read-out: EC50_Mean
T1 sequence (Q13324 whole entry): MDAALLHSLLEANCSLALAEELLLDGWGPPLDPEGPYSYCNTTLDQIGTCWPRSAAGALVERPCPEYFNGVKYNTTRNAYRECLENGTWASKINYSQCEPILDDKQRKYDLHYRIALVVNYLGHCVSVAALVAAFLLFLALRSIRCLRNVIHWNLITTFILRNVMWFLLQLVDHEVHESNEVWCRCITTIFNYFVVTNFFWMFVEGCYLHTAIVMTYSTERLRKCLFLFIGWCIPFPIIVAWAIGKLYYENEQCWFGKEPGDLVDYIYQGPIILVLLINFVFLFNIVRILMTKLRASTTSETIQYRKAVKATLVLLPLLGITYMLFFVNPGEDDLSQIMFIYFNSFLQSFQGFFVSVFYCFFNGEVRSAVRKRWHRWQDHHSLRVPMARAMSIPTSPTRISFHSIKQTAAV
T1 sequence (P24387 whole entry): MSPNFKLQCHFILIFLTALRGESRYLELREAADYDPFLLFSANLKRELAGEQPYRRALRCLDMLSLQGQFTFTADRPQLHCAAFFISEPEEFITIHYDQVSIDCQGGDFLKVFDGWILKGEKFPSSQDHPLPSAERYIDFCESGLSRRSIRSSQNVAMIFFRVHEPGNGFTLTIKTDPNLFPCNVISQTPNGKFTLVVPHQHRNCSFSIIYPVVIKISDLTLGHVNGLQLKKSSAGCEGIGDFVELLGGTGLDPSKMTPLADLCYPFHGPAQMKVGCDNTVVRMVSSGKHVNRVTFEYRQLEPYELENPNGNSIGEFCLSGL

[2] = biological target: Cytochrome P450 2C9 (Homo sapiens, UniProt P11712)
[3] = biological target: Cytochrome P450 2C19 (Homo sapiens, UniProt P33261); assay: Cytochrome panel assay with activity outcomes. Panel member name: p450-cyp2c19 Compounds with AC50 equal or less than 10 uM are considered active; assay type: functional
[4] = Trypanosoma cruzi growth suppression in host cells – NIH3T3 host cells, beta-gal luminescence, confirmation (AID 2044); assay type: functional, cell-based;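 also: intracellular parasites grown in NIH/3T3 mouse fibroblasts as host cells; luminescent beta-galactosidase reporter signal from transgenic T. cruzi replicating inside host cells; inhibitors lower the luminescence signal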
[5] = NIH3T3 cell viability loss – ATP luminescence, mouse fibroblasts, counter-screen, dose response (AID 2010); assay type: functional, cell-based;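 also: cells exposed to compound for about 90 hours before reading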
[6] = luciferase reporter signal suppression in cells – H4 neuroglioma cells, luminescence, dose response (AID 1990); assay type: functional, cell-based
[7] = alpha-synuclein stem-loop luciferase translation blockers – H4 neuroglioma cells, luminescence, confirmation (AID 1988); assay type: functional, cell-based
[8] = Luminescence Cell-Based Dose Response HTS to Identify Inhibitors of 5'UTR Stem-Loop Driven Prion Protein mRNA Translation in H4 Neuroglioblastoma Cells. [Related pubchem assays: 1827 (Project Summary), 1813 (Primary HTS)]; assay type: functional
[9] = biological target: Cytochrome P450 3A4 (Homo sapiens, UniProt P08684);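 also: CYP3A4 tested as one member of a cytochrome P450 panel screen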
Chain of Cytochrome P450 3A4 (P08684 whole entry): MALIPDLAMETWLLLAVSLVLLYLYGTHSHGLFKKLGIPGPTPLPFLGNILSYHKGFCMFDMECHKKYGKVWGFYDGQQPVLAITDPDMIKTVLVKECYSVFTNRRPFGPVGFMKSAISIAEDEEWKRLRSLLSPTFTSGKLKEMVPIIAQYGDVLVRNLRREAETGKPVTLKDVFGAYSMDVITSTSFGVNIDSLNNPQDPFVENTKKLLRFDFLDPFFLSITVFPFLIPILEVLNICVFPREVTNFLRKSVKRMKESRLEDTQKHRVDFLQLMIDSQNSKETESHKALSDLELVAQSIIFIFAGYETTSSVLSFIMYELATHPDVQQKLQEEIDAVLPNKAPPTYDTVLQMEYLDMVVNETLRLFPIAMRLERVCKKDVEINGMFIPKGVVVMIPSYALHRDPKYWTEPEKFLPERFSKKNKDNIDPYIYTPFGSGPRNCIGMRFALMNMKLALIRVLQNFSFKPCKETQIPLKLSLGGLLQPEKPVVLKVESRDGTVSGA

Chain of Cytochrome P450 2C9 (P11712 whole entry): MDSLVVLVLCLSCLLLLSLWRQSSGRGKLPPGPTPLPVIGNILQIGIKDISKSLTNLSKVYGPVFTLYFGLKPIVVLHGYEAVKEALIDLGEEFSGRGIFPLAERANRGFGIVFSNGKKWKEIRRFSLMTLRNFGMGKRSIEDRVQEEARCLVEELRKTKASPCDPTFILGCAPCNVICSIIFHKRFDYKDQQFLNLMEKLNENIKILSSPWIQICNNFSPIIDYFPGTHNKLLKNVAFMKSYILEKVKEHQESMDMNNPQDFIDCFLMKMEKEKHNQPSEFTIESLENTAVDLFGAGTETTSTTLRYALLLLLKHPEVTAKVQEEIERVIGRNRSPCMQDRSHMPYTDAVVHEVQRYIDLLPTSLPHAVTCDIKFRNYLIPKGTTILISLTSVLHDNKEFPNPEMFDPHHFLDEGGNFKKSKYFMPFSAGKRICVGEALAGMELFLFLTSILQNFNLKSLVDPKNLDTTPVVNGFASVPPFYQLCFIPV
Chain of Cytochrome P450 2C19 (P33261 whole entry): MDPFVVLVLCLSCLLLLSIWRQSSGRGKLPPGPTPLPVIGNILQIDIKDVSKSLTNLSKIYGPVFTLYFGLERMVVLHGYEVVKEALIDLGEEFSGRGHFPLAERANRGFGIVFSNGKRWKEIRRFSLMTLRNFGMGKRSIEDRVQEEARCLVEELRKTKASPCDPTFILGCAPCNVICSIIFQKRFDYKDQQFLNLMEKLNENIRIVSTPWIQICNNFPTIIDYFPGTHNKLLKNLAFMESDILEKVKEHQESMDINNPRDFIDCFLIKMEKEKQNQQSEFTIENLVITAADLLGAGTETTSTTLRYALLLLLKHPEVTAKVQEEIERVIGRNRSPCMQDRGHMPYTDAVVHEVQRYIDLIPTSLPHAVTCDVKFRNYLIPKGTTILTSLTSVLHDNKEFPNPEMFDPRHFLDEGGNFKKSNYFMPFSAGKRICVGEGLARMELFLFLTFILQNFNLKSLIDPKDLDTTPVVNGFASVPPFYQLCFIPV

COc1ccccc1NC(=O)CCSc1nnnn1C
EC50 [1]: > 53 µM (inactive)

COc1ccc(Oc2ncc3ncc(=O)n(C[C@H]4CCCO4)c3n2)cc1
AC50 [2]: 20 µM (inconclusive)

Cc1cc(C)n(CC(=O)N/N=C/c2ccco2)n1
AC50 [3]: inconclusive

CCN(CC)CCN(C(=O)CCOc1ccccc1)c1nc2c(F)cc(F)cc2s1
EC50 [4]: 1.02 µM (active)
EC50 [5]: > 60 µM (inconclusive)

Cc1ccc2cc(C(c3nnnn3C3CCCC3)N3CCN(c4ccc(F)cc4)CC3)c(O)nc2c1 (centres undefined)
EC50 [6]: 20.6 µM (active)
EC50 [7]: 106 µM (active)
EC50 [8]: 113 µM (active)

Nc1ccc(S(=O)(=O)c2ccc(NCN3C(=O)NC(=O)C(=O)C3=O)cc2)cc1 [ALLANTODAPSONE]
AC50 [3]: inconclusive

N#Cc1ccc(CN2CCCC3(CCN(C(=O)c4cccc(F)c4)CC3)C2)cc1
AC50 [2]: 39.8 µM (inconclusive)
AC50 [9]: 10 µM (inconclusive)

CN(C)CCCOC(=O)c1ccc(Cl)cc1Cl
EC50 [4]: 2.56 µM (active)
EC50 [5]: > 60 µM (not active)

c1ccc(Oc2cccc(OCCCCSc3ncccn3)c2)cc1
EC50 [1]: > 53 µM (inactive)

N#C/C(=C(/O)c1cccc(F)c1)c1nc2ccccc2s1
EC50 [1]: > 53 µM (inactive)

CCOc1ccc(S(=O)(=O)Nc2nc3ccccc3nc2Nc2ccc(N3CCOCC3)cc2)cc1
EC50 [1]: > 53 µM (inactive)

Cc1cc(C)c2cc(C#N)c(NCCOC(=O)c3ccccc3C)nc2c1
AC50 ([3]; read-out: AC50): 1.78 µM (inconclusive)

COc1cccc(-c2ccc3ncnc(NCc4cccnc4)c3c2)c1
AC50 [2]: 1.58 µM (inconclusive)

Nc1cccc2cc(S(=O)(=O)Nc3ccc(C(=O)O)cc3)ccc12
AC50 [2]: 7.94 µM (inconclusive)
AC50 ([3]; read-out: AC50): 3.16 µM (inconclusive)

C=CCOc1c(Cl)cc(CNCCCN2CCOCC2)cc1OC
EC50 [4]: 0.125 µM (active)
EC50 [5]: 20.2 µM (active)

c1ccc(CNc2nc(-c3ccoc3)nc3ccccc23)cc1
AC50 ([3]; read-out: AC50): 20 µM (inconclusive)

c1ccc(COc2cccc(CNCc3cccnc3)c2)cc1
EC50 [4]: 8.34 µM (active)
EC50 [5]: > 30 µM (not active)

CCCOC(=O)c1ccc(NC(=O)c2cn(CC)c3nc(C)ccc3c2=O)cc1
AC50 [2]: 15.8 µM (inconclusive)
AC50 ([3]; read-out: AC50): 20 µM (inconclusive)

COc1ccc(NC(=O)c2cc(-c3cccnc3)nc3ccc(C)cc23)cc1OC
AC50 [2]: 7.08 µM (inconclusive)
AC50 ([3]; read-out: AC50): 10 µM (inconclusive)

COc1cc([N+](=O)[O-])ccc1-c1ccc(/C=N/NC(=O)OC(C)(C)C)o1
EC50 [1]: 6.43 µM (active)

CCCOc1ccccc1N=C(Nc1nc(C)cc(C)n1)NS(=O)(=O)c1ccc(C)cc1
EC50 [6]: 14.6 µM (active)
EC50 [7]: > 120 µM (not active)
EC50 [8]: > 120 µM (not active)

Cc1ccc(SCc2ccc(C(=O)Nc3ccccc3Br)cc2)cc1
EC50 [1]: > 53 µM (inactive)

CCN(CC)CC#CCOC(=O)[C@@](O)(c1ccccc1)C1CCCCC1 [ESOXYBUTYNIN]
AC50 [2]: 15.8 µM (inconclusive)

COc1ccc(C2(C)NC(=O)N(CC(=O)c3cc(C)n(C4CC4)c3C)C2=O)cc1 (centres undefined)
EC50 [1]: 5.74 µM (active)

COc1ccc(NC(=O)N2CCCC3(CCN(C(=O)c4c(C)noc4C)CC3)C2)cc1
AC50 [9]: 25.1 µM (inconclusive)

CCOc1ccc(CNC(=O)C2CCC(=O)N2C2CCCC2)cc1OC (centres undefined)
AC50 [2]: 28.2 µM (inconclusive)
AC50 ([3]; read-out: AC50): 22.4 µM (inconclusive)
AC50 [9]: 25.1 µM (inconclusive)

COc1ccc(Cc2nn3c(-c4ccccc4Br)nnc3s2)cc1
EC50 [6]: > 120 µM (not active)
EC50 [7]: > 120 µM (not active)

Cc1c(CC(C)(C)C(=O)O)n(Cc2ccc(Cl)cc2)c2ccc(F)cc12
AC50 [3]: inconclusive
AC50 [9]: 25.1 µM (inconclusive)

Cc1cc(Oc2ccccc2)nc(-c2ccccc2)n1
AC50 [2]: 12.6 µM (inconclusive)

Cc1ccccc1C(=O)Nc1cccc(NC(=O)Cn2cnc3c(=O)n(C)c(=O)n(C)c32)c1
EC50 [6]: 26.9 µM (active)
EC50 [7]: > 120 µM (not active)
EC50 [8]: 12.9 µM (active)

CSc1cccc(NC(=S)N(Cc2ccccc2)Cc2cccnc2)c1
EC50 [4]: 0.653 µM (active)
EC50 [5]: > 60 µM (not active)

COc1ccccc1-c1nc(N(C)C)c2ccccc2n1
AC50 [9]: 15.8 µM (inconclusive)

CCCCc1nc(NCC2CCCO2)c(C#N)c2c1COC(C)(C)C2 (centres undefined)
EC50 [6]: 28 µM (active)
EC50 [7]: > 120 µM (not active)
EC50 [8]: > 120 µM (not active)

O=c1c(-c2cccs2)nc2cncnc2n1C1CC1
AC50 [2]: 15.8 µM (inconclusive)
AC50 [9]: 5.01 µM (inconclusive)

CN(C)CCNC(=O)c1csc(Nc2cccc3ccccc23)n1
EC50 [6]: > 120 µM (not active)
EC50 [7]: 17.1 µM (active)
EC50 [8]: 23.6 µM (active)

Cc1cc(C)c(S(=O)(=O)c2ccc(Cl)cc2C)c(Cl)n1
EC50 [4]: 0.336 µM (active)
EC50 [5]: 35.9 µM (active)

CC(C)(Oc1ccc(Cl)cc1)C(=O)Nc1cccnc1
AC50 [9]: 17.8 µM (inconclusive)

Cc1cc(S(=O)(=O)NCCN(C)C)c(C)s1
AC50 [2]: 0.0447 µM (inconclusive)
AC50 ([3]; read-out: AC50): 31.6 µM (inconclusive)

COc1ncc2nc(CCc3ccccc3)c(=O)n(CCc3ccccc3)c2n1
AC50 [2]: 2 µM (inconclusive)

Cc1nc2cnc(Oc3cccc(Cl)c3)nc2n(C[C@H]2CCCO2)c1=O
AC50 [9]: 15.8 µM (inconclusive)

C[C@@H](C(=O)Nc1ccc2ccccc2c1)[C@H]1C[C@]1(C)[C@H](NC(=O)Oc1ccc(F)cc1)c1ccccc1
AC50 [2]: 31.6 µM (inconclusive)

COc1ccc(NC(=O)/C(=C\c2cc(OC)c(OC)cc2[N+](=O)[O-])NC(=O)c2ccccc2)cc1
AC50 ([3]; read-out: AC50): 20 µM (inconclusive)
AC50 [9]: 0.891 µM (inconclusive)

COc1ccc(/C=N/NC(=O)C2CCN(c3ncc(C(F)(F)F)cc3Cl)CC2)cc1
AC50 [9]: 11.2 µM (inconclusive)

O=C(OCc1ccccc1Cl)c1cc([N+](=O)[O-])ccc1N1CCOCC1
EC50 [6]: 23.3 µM (active)
EC50 [7]: 36.1 µM (active)
EC50 [8]: > 120 µM (not active)

Cc1cc(C(=O)OC2CCOC2=O)c2ccccc2n1 (centres undefined)
AC50 ([3]; read-out: AC50): 28.2 µM (inconclusive)

CCOC(=O)CC(=O)CSc1nc(-c2cccnc2)cc(C)c1C#N
AC50 ([3]; read-out: AC50): 8.91 µM (inconclusive)
AC50 [9]: 11.2 µM (inconclusive)

O=C(Nc1ccc(Br)cc1Cl)c1ccc2c(=O)n3c(nc2c1)CCC3
EC50 [1]: 4.04 µM (active)

CCC/C=C(\CCC)C(NC(=O)OCC(C)C)c1ccc(C(=O)OC)cc1 (centres undefined)
AC50 ([3]; read-out: AC50): 25.1 µM (inconclusive)

CCOC(=O)c1sc(NC(=O)c2cccc(S(=O)(=O)N3c4ccccc4CC3C)c2)cc1C (centres undefined)
EC50 [6]: 10.1 µM (active)
EC50 [7]: 6.96 µM (active)
EC50 [8]: 13.6 µM (active)

COC(=O)[C@@]1(Cc2ccc(OC)cc2)[C@@H]2C(=CC(=O)[C@H]2CC(=O)C(=O)N2CCCC2)CN1C(=O)c1ccccc1
AC50 ([3]; read-out: AC50): 39.8 µM (inconclusive)
AC50 [9]: 2 µM (inconclusive)

COc1ccc(-c2oc3cc(OC)c(O)c(OC)c3c(=O)c2OC)cc1O
EC50 [6]: 11.3 µM (active)
EC50 [7]: 13.6 µM (active)
EC50 [8]: 12.6 µM (active)

CC1(C)C(=O)OC(c2cccn2-c2ccc([N+](=O)[O-])cc2)C2(CCCCC2)C1=O (centres undefined)
EC50 [1]: 4.72 µM (active)

COc1ccc2[nH]c(C(O)(Cc3cccnc3)Cc3cccnc3)cc2c1
EC50 [4]: 2.42 µM (active)
EC50 [5]: > 60 µM (inconclusive)

O=c1c(-c2ccc(Cl)cc2)nc2cncnc2n1Cc1ccc(F)cc1
AC50 [9]: 15.8 µM (inconclusive)

COc1cc2c(cc1NC(=O)Nc1ccc(F)cc1)oc1ccccc12
EC50 [4]: 1.94 µM (active)
EC50 [5]: > 30 µM (not active)

OCCCCNCc1ccc(OCc2ccccc2Cl)cc1
AC50 ([3]; read-out: AC50): 25.1 µM (inconclusive)
AC50 [9]: 25.1 µM (inconclusive)

CN(C)Cc1ccccc1-c1nc(N(C)Cc2ccco2)c2ccccc2n1
AC50 [9]: 1.58 µM (inconclusive)

COc1ccccc1-c1ccc2ncnc(Nc3ccccc3)c2c1
AC50 [2]: 1.26 µM (inconclusive)

COCCn1c(=O)c(-c2cccs2)nc2cnc(N3CCN(C)CC3)nc21
AC50 [9]: 31.6 µM (inconclusive)

CC(C)=CCC/C(C)=C/CO/N=C1/C[C@@H](O)[C@@H](O)[C@@H]2[C@H]3C(=O)N(c4ccc(F)cc4F)C(=O)[C@@H]3CC[C@@H]12
AC50 [9]: 3.98 µM (inconclusive)

Cc1cc(C)cc(N2C(=O)/C(=C/NC3CCS(=O)(=O)C3)c3ccccc3C2=O)c1 (centres undefined)
AC50 ([3]; read-out: AC50): 39.8 µM (inconclusive)
